In EP0751930B1 (G.D. SEARLE & CO., priority 1994, dated 1995):

Assays:
[1] = target: T1, Recombinant human inducible nitric oxide synthase (hiNOS) (Homo sapiens, UniProt P35228); assay: Citrulline Assay for Nitric Oxide Synthase (hiNOS); assay type: biochemical; details: for IC50: conversion of [3H]-arginine to [3H]-citrulline, 30 µM L-arginine, 37°C, 15 minutes
T1 construct: made in house; host or cells: Sf9 insect cells (recombinant baculovirus)
Description: (§1) Nitric oxide synthase activity was measured by monitoring the conversion of [^3H]-arginine to [^3H]-citrulline. Mouse inducible nitric oxide synthase (miNOS) was prepared from an extract of LPS-treated RAW 264.7 cells and partially purified by DEAE-Sepharose chromatography. Rat brain constitutive nitric oxide synthase (rnNOS) was prepared from an extract of rat cerebellum and partially purified by DEAE-Sepharose chromatography. Enzyme and inhibitors were incubated at 37°C for 15 minutes in a reaction volume of 100 µL with the following components added to start the reaction: 50 mM Tris (pH 7.6), 1 mg/ml bovine serum albumin, 1 mM DTT, 2 mM CaCl2, 10 µM FAD, 10 µM tetrahydrobiopterin, 30 µM L-arginine containing L-[2,3-^3H]-arginine at 300 cpm/pmole and 1 mM NADPH. For constitutive NOS, 50 nM calmodulin was also added. The reaction was terminated by addition of cold stop buffer containing 10 mM EGTA, 100 mM HEPES, pH 5.5 and 1 mM citrulline. [^3H]-Citrulline was separated by chromatography on Dowex 50W X-8 cation exchange resin and radioactivity determined with a liquid scintillation counter.
Recombinant human inducible nitric oxide synthase (hiNOS) was extracted from Sf9 insect cells (infected with recombinant baculoviruses encoding a cDNA for human inducible nitric oxide synthase which has been isolated and purified from a lambda Zapll cDNA library made from RNA isolated from a colon sample from a patient with ulcerative colitis) and partially purified by DEAE-chromatography.

[2] = target: T2, Mouse inducible nitric oxide synthase (miNOS) (Mus musculus, UniProt P29477); assay: Citrulline Assay for Nitric Oxide Synthase (miNOS); assay type: biochemical; details: for IC50: conversion of [3H]-arginine to [3H]-citrulline, 30 µM L-arginine, 37°C, 15 minutes
T2 construct: prepared from an extract of LPS-treated RAW 264.7 cells and partially purified by DEAE-Sepharose chromatography; endogenous in cells; host or cells: LPS-treated RAW 264.7 cells
T2 sequence (P29477 whole entry): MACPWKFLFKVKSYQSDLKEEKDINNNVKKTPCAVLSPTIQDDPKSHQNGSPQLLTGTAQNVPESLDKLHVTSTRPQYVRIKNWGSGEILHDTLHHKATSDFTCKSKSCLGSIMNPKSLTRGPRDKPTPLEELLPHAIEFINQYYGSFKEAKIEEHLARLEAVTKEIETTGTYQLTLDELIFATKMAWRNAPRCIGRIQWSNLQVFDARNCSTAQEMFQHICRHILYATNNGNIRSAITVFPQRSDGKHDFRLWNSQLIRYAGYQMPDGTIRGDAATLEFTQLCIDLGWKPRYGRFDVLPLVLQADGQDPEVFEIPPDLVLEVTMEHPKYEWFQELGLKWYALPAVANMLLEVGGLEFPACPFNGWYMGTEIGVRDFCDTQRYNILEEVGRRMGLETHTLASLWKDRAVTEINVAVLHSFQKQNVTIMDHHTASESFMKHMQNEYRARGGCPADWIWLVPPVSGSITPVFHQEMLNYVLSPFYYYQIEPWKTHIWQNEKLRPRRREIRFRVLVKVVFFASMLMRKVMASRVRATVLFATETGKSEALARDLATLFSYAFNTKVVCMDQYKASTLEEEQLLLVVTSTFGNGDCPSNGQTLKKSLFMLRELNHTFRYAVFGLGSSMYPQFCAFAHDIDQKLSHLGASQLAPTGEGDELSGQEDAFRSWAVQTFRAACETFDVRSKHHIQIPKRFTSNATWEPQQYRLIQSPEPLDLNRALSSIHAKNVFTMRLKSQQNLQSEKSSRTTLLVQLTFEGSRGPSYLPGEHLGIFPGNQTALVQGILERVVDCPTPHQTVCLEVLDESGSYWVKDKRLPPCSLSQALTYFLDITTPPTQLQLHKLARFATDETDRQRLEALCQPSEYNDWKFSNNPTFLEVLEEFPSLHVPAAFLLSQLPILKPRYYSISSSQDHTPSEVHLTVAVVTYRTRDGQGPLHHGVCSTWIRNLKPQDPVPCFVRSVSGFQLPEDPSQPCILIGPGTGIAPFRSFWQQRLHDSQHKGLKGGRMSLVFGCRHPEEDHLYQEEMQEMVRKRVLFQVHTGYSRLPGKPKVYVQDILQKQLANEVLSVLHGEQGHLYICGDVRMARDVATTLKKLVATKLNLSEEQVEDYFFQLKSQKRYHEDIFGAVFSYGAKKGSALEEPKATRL
Description: as §1

[3] = target: T3, Rat brain constitutive nitric oxide synthase (rnNOS) (Rattus norvegicus, UniProt P29476); assay: Citrulline Assay for Nitric Oxide Synthase (rnNOS); assay type: biochemical; details: for IC50: conversion of [3H]-arginine to [3H]-citrulline, 30 µM L-arginine, 50 nM calmodulin added
T3 construct: prepared from an extract of rat cerebellum and partially purified by DEAE-Sepharose chromatography; from tissue; host or cells: rat cerebellum
T3 sequence (P29476 whole entry): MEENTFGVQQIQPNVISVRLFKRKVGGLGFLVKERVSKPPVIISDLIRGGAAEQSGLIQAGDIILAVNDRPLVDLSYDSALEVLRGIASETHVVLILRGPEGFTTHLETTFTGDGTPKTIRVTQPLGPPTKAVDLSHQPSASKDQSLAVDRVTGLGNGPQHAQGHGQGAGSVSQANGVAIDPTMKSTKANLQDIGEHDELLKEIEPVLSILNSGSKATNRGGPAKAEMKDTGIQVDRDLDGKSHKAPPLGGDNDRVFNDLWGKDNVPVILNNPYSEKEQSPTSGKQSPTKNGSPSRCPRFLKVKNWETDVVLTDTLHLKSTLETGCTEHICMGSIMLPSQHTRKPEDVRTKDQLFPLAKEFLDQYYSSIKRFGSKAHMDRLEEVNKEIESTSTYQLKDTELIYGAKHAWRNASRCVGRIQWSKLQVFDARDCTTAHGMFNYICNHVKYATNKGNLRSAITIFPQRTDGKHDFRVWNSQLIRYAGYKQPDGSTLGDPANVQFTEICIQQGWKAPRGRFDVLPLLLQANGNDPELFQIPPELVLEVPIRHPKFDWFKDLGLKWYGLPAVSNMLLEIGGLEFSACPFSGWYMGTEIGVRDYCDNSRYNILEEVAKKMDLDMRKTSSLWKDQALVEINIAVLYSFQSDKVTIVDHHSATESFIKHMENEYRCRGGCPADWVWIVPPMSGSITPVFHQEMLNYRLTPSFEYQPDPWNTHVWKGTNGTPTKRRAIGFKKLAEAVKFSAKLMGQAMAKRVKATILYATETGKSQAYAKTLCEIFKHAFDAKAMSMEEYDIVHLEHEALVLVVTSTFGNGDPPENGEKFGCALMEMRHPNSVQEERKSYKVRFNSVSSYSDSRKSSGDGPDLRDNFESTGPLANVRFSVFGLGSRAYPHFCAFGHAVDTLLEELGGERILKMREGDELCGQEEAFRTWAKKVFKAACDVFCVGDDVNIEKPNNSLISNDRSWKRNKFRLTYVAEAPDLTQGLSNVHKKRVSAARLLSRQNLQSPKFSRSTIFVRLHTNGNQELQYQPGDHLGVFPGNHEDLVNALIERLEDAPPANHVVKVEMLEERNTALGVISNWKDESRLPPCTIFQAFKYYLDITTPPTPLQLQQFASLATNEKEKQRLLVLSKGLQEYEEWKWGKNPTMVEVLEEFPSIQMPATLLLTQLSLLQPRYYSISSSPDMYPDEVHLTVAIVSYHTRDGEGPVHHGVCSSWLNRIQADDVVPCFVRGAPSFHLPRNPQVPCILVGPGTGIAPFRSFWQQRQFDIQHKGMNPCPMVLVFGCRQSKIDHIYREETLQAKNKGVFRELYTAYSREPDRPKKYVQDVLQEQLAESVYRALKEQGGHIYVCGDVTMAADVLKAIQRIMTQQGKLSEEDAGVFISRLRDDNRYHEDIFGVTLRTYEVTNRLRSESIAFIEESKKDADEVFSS
Description: as §1

RAW 264.7 cells = assay: Raw Cell Nitrite Assay; assay type: cell-based; details: Mus musculus, RAW264.7; for IC50: nitrite production by intracellular iNOs, LPS-induced RAW 264.7 cells, L-arginine 30 µM
Description: RAW 264.7 cells are plated to confluency on a 96-well tissue culture plate grown overnight (17h) in the presence of LPS to induce NOS. A row of 3-6 wells were left untreated and served as controls for subtraction of nonspecific background. The media was removed from each well and the cells are washed twice with Krebs-Ringers-Hepes (25mM, pH 7.4) with 2 mg/ml glucose. The cells are then placed on ice and incubated with 50 µL of buffer containing L-arginine (30 µM) +/- inhibitors for lh. The assay is initiated by warming the plate to 37°C in a water bath for lh. Production of nitrite by intracellular iNOs is linear with time. To terminate the cellular assay, the plate of cells is placed on ice and the nitrite-containing buffer removed and analyzed for nitrite using a previously published fluorescent determination for nitrite. All values are the average of triplicate wells and are compared to a background-subtracted induced set of cells (100% value).

| SMILES | IC50 [1] [µM] | IC50 [2] [µM] | IC50 [3] [µM] | IC50 (RAW 264.7 cells) [µM] | inhibition at 10 µM ([1]; @ 10 µM, read-out: hiNos Inh.) [%] | inhibition at 10 µM ([2]; @ 10 µM, read-out: miNOS Inh.) [%] | inhibition at 10 µM ([3]; @ 10 µM, read-out: rnNOS Inh.) [%] | inhibition at 10 µM (RAW 264.7 cells; @ 10 µM, read-out: Raw Cell Inh.) [%] |
| --- | --- | --- | --- | --- | --- | --- | --- | --- |
| CC(=N)NCCCCC(C)(N)C(=O)O (racemic) [Example 2] | 26.6 | 7.2 | 193 | 52.5 | – | – | – | – |
| CC(=N)NCC[Se]CC(N)C(=O)O (racemic) [Example 3, Nε-iminoethyl-aminoethylselenocysteine] | 35.5 | 5 | 229 | 0.37 | – | – | – | – |
| CC(=N)NCCCCC(N)(CO)C(=O)O (racemic) [Example 4] | – | – | – | – | 39 | 39 | 8.6 | 8.6 |
| CC(=N)NCCCC(C)(N)C(=O)O (stereo not shown) [Example 1] | 73.5 | 34.9 | 356 | 25 | – | – | – | – |
